The test system of one assay is CFA-hindpaw inflammation. Kind of assay: CFA-hindpaw inflammation, paw pressure test (CFA-PPT), intraperitoneal injection. The assay is classed as in vivo, rat. As to conditions: ip; Lidocaine dose range 10 mg/kg to 46.4 mg/kg, Diclofenac dose range 21.5 mg/kg to 100 mg/kg. The protocol: An interaction study was performed as a single dose study in the CFA-hindpaw inflammation, paw pressure test.
In comparative example 1 and inventive examples 1 to 4 described below, a compound or combination of compounds was administered by intraperitoneal injection (FIGS. 1 to 9).
The pain was measured by pressing a pointer on the inflamed paw. The pointer exerts a force, increasing at a constant rate, monitored by a linear scale. Pain is deemed to be perceived one the rat starts to withdraw the paw. This value (withdrawal threshold in gram) is the pressure at which the animal feels pain (cut-off 450 g). Efficacy of the test compounds is expressed as a percent change of withdrawal threshold after compound administration to the pre-value (withdrawal threshold before compound administration).

In assay [1] the test system is CFA-induced paw edema / mechanical-hyperalgesia. Kind of assay: CFA-hindpaw inflammation, paw pressure test (CFA-PPT), topical application to the paw as ointment or solution. As to conditions: Lidocaine 30 mg/ml to 60 mg/ml, Diclofenac 40 mg/ml to 80 mg/ml. The assay is classed as in vivo, male albino rats. The protocol:
In comparative example 2 and inventive examples 5 to 8 as described below, a compound or combination of compounds was administered topically to the paw by means of an ointment or solution (FIGS. 10 to 18).
The efficacy was tested when a compound or a compositions of compounds was administered topically as an ointment or a solution. The study was performed on male albino rats (150-180 g body weight) to which an edema of paw was induced by injection of Complete Freunds Adjuvant (CFA). CFA is a composition of inactivated and dried Myobacteria tuberculoses, emulsified in mineral oil which is used as an immunopotentiator causing a painful reaction that lasts 7-8 days after subcutaneous injection.
The studies of comparative example 2 and inventive examples 5 to 8 were performed according to the following procedure: 50 μL of CFA were injected sub plantar into the right hind paw, inducing mechanical-hyperalgesia after 24 hours. […]
The pain was measured by pressing a pointer on the inflamed paw. The pointer exerts a force, increasing at a constant rate, monitored by a linear scale. […] Efficacy of the test compounds is expressed as a percent change of withdrawal threshold after compound administration to the pre-value (withdrawal threshold before compound administration).

The structures appear in SMILES notation.

Regarding `O=C(O)Cc1ccccc1Nc1c(Cl)cccc1Cl` [Diclofenac, 2-(2,6-dichloranilino) phenylacetic acid], the “efficacy when administered alone” value in the assay with CFA-hindpaw inflammation is given as “dose dependent efficacy”. The “efficacy when topically administered alone” value in assay [1] is reported as “dose dependent efficacy”.
As to `CCN(CC)CC(=O)Nc1c(C)cccc1C` [Lidocaine, 2-(diethylamino)-N-(2,6-dimethylphenyl)acetamide], the “efficacy when administered alone” value in the assay with CFA-hindpaw inflammation is “dose dependent efficacy”. The “efficacy when topically administered alone” value in assay [1] is “dose dependent efficacy”.

For the origin of these results see US20190388360A1, “PHARMACEUTICAL PATCH COMPRISING LIDOCAINE AND DICLOFENAC FOR TREATING NEUROPATHIC PAIN” (TEIKOKU SEIYAKU CO., LTD., priority 2017, published 2019).
